Measured values: US9034876B2, “Treatment of chronic inflammation with a 1,2,4-triazolo [1,5a] pyridine derivative” (Cephalon, Inc., priority 2010, dated 2015)
Like-named read-outs stand apart in the source and are kept apart here.

Assays:
panel of 402 kinases = test: Kinome binding assays, selectivity panel; details: test concentration 1 μM
[1] = Compound quantification (PK) in plasma, paw and spleen of CAIA mice; type: in vivo; details: DBA/1, mouse, oral, day 20, mean±SEM, N=3; for concentration at 2 h: 2 hrs post-administration; for concentration at 6 h: 6 hrs post-administration
Description: FIG. 2B: Depicts the results of a PK (pharmacokinetic) study of Compound A, 55 mg/kg, 30 mg/kg and 10 mg/kg, p.o., s.i.d. (once daily), in the plasma, paw and spleen of treated mice, N=3 mice per group tested. The data shown in the figure represents the mean±SEM (standard error of the mean).
While the level of Compound A in the target tissue, i.e., the paw, was relatively low, the levels of Compound A were relatively constant between the two time points for the 55 mg/kg treatment group. […] The data (mean±SEM, N=3) represented in FIG. 2B is tabulated below:
Plasma and protein extraction from paw and spleen samples were submitted for quantitative analysis to determine the respective compound concentrations. Blood samples were collected into heparinized tubes and placed on wet ice until centrifuged (16,000×g, 5 minutes) to separate the plasma. Supernatant was collected and stored at −20° C. pending analysis. At the time of analysis, two volumes of cold acetonitrile containing an internal standard (alprenolol) were added to each sample which were then vortexed and centrifuged. The supernatants were removed, placed into an auto-sampler vial and the amount of compound present in the samples was analyzed by liquid chromatograph/mass spectrometry (LC-MS-MS). The concentration of compound in the samples was quantified against a mouse plasma standard curve made via serial dilution in a concentration range from 5 to 20,000 ng/mL. Samples containing concentrations greater than 10% above the top of the standard curve were diluted 1:10 with acetonitrile. The limit of detection for plasma, paw and spleen were <10 ng/ml.

phospho-STAT3 = test: CIA model, paw phospho-STAT3; type: in vivo, female DBA/1 mice
Description: Female DBA/1 mice were injected with purified collagen type II in CFA i.d. (intradermal), then boosted with collagen type II in IFA, s.c., (subcutaneous) on day 21 followed by a day 28 LPS injection i.p. to induce arthritis (CIA). Mice that scored a ‘1’ or better for each paw were considered arthritic and entered into the study. Treatments started after 7-10 days of arthritis induction. Compound A was provided orally, b.i.d., for all doses tested; Dex was administered i.p. at 1.5 mg/kg, three times a week; and vehicle (PEG400+1% DMSO) was provided orally, b.i.d.
FIG. 4B: Depicts Phospho-STAT3 expression in arthritic paws for each treatment group.
A more detailed description of this method can be found described elsewhere (Lu et al, 2010, submitted for publication). Briefly, the front (including carpus) and back (including tarsus) right paws were collected and frozen in dry-ice cooled isopentane and stored at −80° C. until use. The paws were cut to 2 mm×2 mm segments and kept on dry-ice in round bottom polypropylene tubes. […] Protein concentration was measured using a BCA protein assay (Pierce, Rockford, Ill.) and adjusted to 3 mg/ml. […]

[2] = test system: CB11-specific, IFNγ secreting T cells; test: CIA model, ex vivo IFNγ T-cell Elispot of splenocytes; type: in vivo, female DBA/1 mice; details: four weeks
Excerpt: FIG. 4D: Depicts IFNγ Elispot® results from stimulated splenocytes from treated mice challenged with collagen type II fragment (CB11), OVA or media alone. The Elispot images shown in the figure are representative of each treatment group and the bar graph represents data using four mice from each treatment group. Spots were counted using a C.T.L. Immunospot Elispot scanner and spot counting software.
For CIA experiments, Millipore nitrocellulose IP filter plates (Millipore, Billerica, Mass.) were coated with either anti-mouse IFNγ (AN18, MabTech, Mariemont, Ohio) or anti-mouse IL-4 (11B11, eBioscience, San Diego, Calif.) at 7 μg/ml or 2 μg/ml, respectively, in sterile PBS at 60 μl per well and incubated for 3 hours at RT or overnight at 4° C. Coated wells were washed with PBS plus 0.1% Tween-20 and patted semi-dry before blocking using complete media for at least 1 hour before use. Purified mouse collagen type II (Chrondrex, Redmond, Wash.), type I (Chrondrex, Redmond, Wash.) or third party control chicken ovalbumin (OVA) (Sigma, St. Louis, Mo.) were used to challenge 1 million processed splenocytes per well at 10 μg/ml of total antigen concentration. Media alone were used as background controls, OVA as third party controls and PMA plus Ionomycin as positive controls for IFNγ and IL-4 release by Th1 and Th2 cells, respectively.

[3] = paw, 10 mg/kg p.o., read-out: concentration in paw
[4] = paw, 30 mg/kg p.o., read-out: concentration in paw
[5] = paw, 55 mg/kg p.o., read-out: concentration in paw
[6] = plasma, 10 mg/kg p.o., read-out: concentration in plasma
[7] = plasma, 30 mg/kg p.o., read-out: concentration in plasma
[8] = plasma, 55 mg/kg p.o., read-out: concentration in plasma
[9] = spleen, 10 mg/kg p.o., read-out: concentration in spleen
[10] = spleen, 30 mg/kg p.o., read-out: concentration in spleen
[11] = spleen, 55 mg/kg p.o., read-out: concentration in spleen

In the case of `CN1CCN(c2cccc(Nc3nc4c(-c5ccc(S(C)(=O)=O)cc5)cccn4n3)c2)CC1` [Compound A, [8-(4-Methanesulfonyl-phenyl)-[1,2,4]triazolo[1,5-a]pyridin-2-yl]-[3-(4-methyl-piperazin-1-yl)-phenyl]-amine], the “share of the panel inhibited by >90%” value (panel of 402 kinases; 402 kinases) is reported as 9%, the “share of the panel inhibited by >99%” value (panel of 402 kinases; 402 kinases) is reported as 1% and the “selectivity score S(90)402” value (panel of 402 kinases; score of Karaman et al) is reported as 0.09. For the same compound, the “selectivity score S(99)402” value (panel of 402 kinases; score of Karaman et al) was 0.01, the concentration at 2 h [1, 3] was 214 ± 12.4 ng/mL and the concentration at 6 h [1, 3] was 172 ± 48.7 ng/mL. The concentration at 2 h [1, 4] was 508 ± 213 ng/mL, the concentration at 6 h [1, 4] was 376 ± 84.7 ng/mL and the concentration at 2 h [1, 5] was 660 ± 81.1 ng/mL. It also gave a concentration at 6 h [1, 5] of 472 ± 74.3 ng/mL, a concentration at 2 h [1, 6] of 1160 ± 48.1 ng/mL and a concentration at 6 h [1, 6] of 433 ± 56.7 ng/mL. It also gave a concentration at 2 h [1, 7] of 2040 ± 693 ng/mL, a concentration at 6 h [1, 7] of 1310 ± 258 ng/mL and a concentration at 2 h [1, 8] of 3160 ± 456 ng/mL. It also gave a concentration at 6 h [1, 8] of 1480 ± 138 ng/mL, a concentration at 2 h [1, 9] of 673 ± 102 ng/mL and a concentration at 6 h [1, 9] of 273 ± 50.4 ng/mL. It also gave a concentration at 2 h [1, 10] of 1330 ± 113 ng/mL, a concentration at 6 h [1, 10] of 1170 ± 395 ng/mL and a concentration at 2 h [1, 11] of 3900 ± 427 ng/mL. For the same compound, the concentration at 6 h [1, 11] was 2350 ± 433 ng/mL, the “paw pSTAT3” value (phospho-STAT3; 55 mg/kg, p<0.01) was “significantly reduced” and the “paw pSTAT3” value (phospho-STAT3; 100 mg/kg, p<0.001) was “significantly reduced”. For the same compound, the “frequency of CB11-specific, IFNγ secreting T cells” value ([2]; 55 mg/kg b.i.d. p.o.) was “significant reduction in the frequency of CB11-specific, IFNγ secreting T cells” and the “frequency of CB11-specific, IFNγ secreting T cells” value ([2]; 100 mg/kg b.i.d. p.o.) was “significant reduction in the frequency of CB11-specific, IFNγ secreting T cells”.
